Key:
[1] = system: Rattus norvegicus; test: Anti-inflammatory activity in Rattus norvegicus Sprague-Dawley (rat) assessed as increase in carrageenan-induced paw edema at 16 mg/kg, po measured at 4 hr by plethysmometer (reference value: 81.58 +/- 0.63 %); assay type: functional
[2] = system: Mus musculus; test: Analgesic activity in Mus musculus (mouse) assessed as inhibition of acetic acid-induced abdominal writhing at 13.96 mg/kg, po measured for 20 min relative to vehicle-treated control; conditions: Abdomen
[3] = system: Rattus norvegicus; test: Anti-inflammatory activity in Rattus norvegicus Sprague-Dawley (rat) assessed as increase in carrageenan-induced paw edema at 16 mg/kg, po measured at 2 hr by plethysmometer (reference value: 64.73 +/- 0.72 %); assay type: functional
[4] = system: Rattus norvegicus; test: Antiulcerogenic activity in fasted Rattus norvegicus Sprague-Dawley (rat) stomach assessed as ulcer index at 67.1 mg/kg, po after 8 hr (reference value: 0.23 +/- 0.09); assay type: functional
[5] = system: Rattus norvegicus; test: Anti-inflammatory activity in Rattus norvegicus Sprague-Dawley (rat) assessed as increase in carrageenan-induced paw edema at 16.8 mg/kg, po measured at 4 hr by plethysmometer (reference value: 81.58 +/- 0.63 %); assay type: functional
[6] = system: Rattus norvegicus; test: Anti-inflammatory activity in Rattus norvegicus Sprague-Dawley (rat) assessed as increase in carrageenan-induced paw edema at 16.8 mg/kg, po measured at 2 hr by plethysmometer (reference value: 64.73 +/- 0.72 %); assay type: functional
[7] = system: Mus musculus; test: Analgesic activity in Mus musculus (mouse) assessed as inhibition of acetic acid-induced abdominal writhing at 13.35 mg/kg, po measured for 20 min relative to vehicle-treated control; conditions: Abdomen
[8] = system: Rattus norvegicus; test: Antiulcerogenic activity in fasted Rattus norvegicus Sprague-Dawley (rat) stomach assessed as ulcer index at 64.1 mg/kg, po after 8 hr (reference value: 0.23 +/- 0.09); assay type: functional
[9] = system: Rattus norvegicus; test: Anti-inflammatory activity in Rattus norvegicus Sprague-Dawley (rat) assessed as increase in carrageenan-induced paw edema at 16.6 mg/kg, po measured at 2 hr by plethysmometer (reference value: 64.73 +/- 0.72 %); assay type: functional
[10] = system: Rattus norvegicus; test: Antiulcerogenic activity in fasted Rattus norvegicus Sprague-Dawley (rat) stomach assessed as ulcer index at 66.5 mg/kg, po after 8 hr (reference value: 0.23 +/- 0.09); assay type: functional
[11] = system: Rattus norvegicus; test: Anti-inflammatory activity in Rattus norvegicus Sprague-Dawley (rat) assessed as increase in carrageenan-induced paw edema at 16.6 mg/kg, po measured at 4 hr by plethysmometer (reference value: 81.58 +/- 0.63 %); assay type: functional
[12] = system: Mus musculus; test: Analgesic activity in Mus musculus (mouse) assessed as inhibition of acetic acid-induced abdominal writhing at 13.9 mg/kg, po measured for 20 min relative to vehicle-treated control; conditions: Abdomen
[13] = system: Rattus norvegicus; test: Anti-inflammatory activity in Rattus norvegicus Sprague-Dawley (rat) assessed as increase in carrageenan-induced paw edema at 15.6 mg/kg, po measured at 4 hr by plethysmometer (reference value: 81.58 +/- 0.63 %); assay type: functional
[14] = system: Mus musculus; test: Analgesic activity in Mus musculus (mouse) assessed as inhibition of acetic acid-induced abdominal writhing at 12.9 mg/kg, po measured for 20 min relative to vehicle-treated control; conditions: Abdomen
[15] = system: Rattus norvegicus; test: Antiulcerogenic activity in fasted Rattus norvegicus Sprague-Dawley (rat) stomach assessed as ulcer index at 62.2 mg/kg, po after 8 hr (reference value: 0.23 +/- 0.09); assay type: functional
[16] = system: Rattus norvegicus; test: Anti-inflammatory activity in Rattus norvegicus Sprague-Dawley (rat) assessed as increase in carrageenan-induced paw edema at 15.6 mg/kg, po measured at 2 hr by plethysmometer (reference value: 64.73 +/- 0.72 %); assay type: functional
[17] = system: Rattus norvegicus; test: Anti-inflammatory activity in Rattus norvegicus Sprague-Dawley (rat) assessed as increase in carrageenan-induced paw edema at 16.9 mg/kg, po measured at 2 hr by plethysmometer (reference value: 64.73 +/- 0.72 %); assay type: functional
[18] = system: Mus musculus; test: Analgesic activity in Mus musculus (mouse) assessed as inhibition of acetic acid-induced abdominal writhing at 14.08 mg/kg, po measured for 20 min relative to vehicle-treated control; conditions: Abdomen
[19] = system: Rattus norvegicus; test: Anti-inflammatory activity in Rattus norvegicus Sprague-Dawley (rat) assessed as increase in carrageenan-induced paw edema at 16.9 mg/kg, po measured at 4 hr by plethysmometer (reference value: 81.58 +/- 0.63 %); assay type: functional
[20] = system: Rattus norvegicus; test: Antiulcerogenic activity in fasted Rattus norvegicus Sprague-Dawley (rat) stomach assessed as ulcer index at 67.6 mg/kg, po after 8 hr (reference value: 0.23 +/- 0.09); assay type: functional
[21] = system: Rattus norvegicus; test: Antiulcerogenic activity in fasted Rattus norvegicus Sprague-Dawley (rat) stomach assessed as ulcer index at 65.7 mg/kg, po after 8 hr (reference value: 0.23 +/- 0.09); assay type: functional
[22] = system: Mus musculus; test: Analgesic activity in Mus musculus (mouse) assessed as inhibition of acetic acid-induced abdominal writhing at 13.69 mg/kg, po measured for 20 min relative to vehicle-treated control; conditions: Abdomen
[23] = system: Rattus norvegicus; test: Anti-inflammatory activity in Rattus norvegicus Sprague-Dawley (rat) assessed as increase in carrageenan-induced paw edema at 16.4 mg/kg, po measured at 4 hr by plethysmometer (reference value: 81.58 +/- 0.63 %); assay type: functional
[24] = system: Rattus norvegicus; test: Anti-inflammatory activity in Rattus norvegicus Sprague-Dawley (rat) assessed as increase in carrageenan-induced paw edema at 16.4 mg/kg, po measured at 2 hr by plethysmometer (reference value: 64.73 +/- 0.72 %); assay type: functional
[25] = system: Rattus norvegicus; test: Anti-inflammatory activity in Rattus norvegicus Sprague-Dawley (rat) assessed as increase in carrageenan-induced paw edema at 16.5 mg/kg, po measured at 4 hr by plethysmometer (reference value: 81.58 +/- 0.63 %); assay type: functional
[26] = system: Rattus norvegicus; test: Antiulcerogenic activity in fasted Rattus norvegicus Sprague-Dawley (rat) stomach assessed as ulcer index at 66 mg/kg, po after 8 hr (reference value: 0.23 +/- 0.09); assay type: functional
[27] = system: Rattus norvegicus; test: Anti-inflammatory activity in Rattus norvegicus Sprague-Dawley (rat) assessed as increase in carrageenan-induced paw edema at 16.5 mg/kg, po measured at 2 hr by plethysmometer (reference value: 64.73 +/- 0.72 %); assay type: functional
[28] = system: Mus musculus; test: Analgesic activity in Mus musculus (mouse) assessed as inhibition of acetic acid-induced abdominal writhing at 13.75 mg/kg, po measured for 20 min relative to vehicle-treated control; conditions: Abdomen
[29] = system: Rattus norvegicus; test: Anti-inflammatory activity in Rattus norvegicus Sprague-Dawley (rat) assessed as increase in carrageenan-induced paw edema at 12 mg/kg, po measured at 2 hr by plethysmometer (reference value: 64.73 +/- 0.72 %); assay type: functional
[30] = system: Rattus norvegicus; test: Anti-inflammatory activity in Rattus norvegicus Sprague-Dawley (rat) assessed as increase in carrageenan-induced paw edema at 12 mg/kg, po measured at 4 hr by plethysmometer (reference value: 81.58 +/- 0.63 %); assay type: functional
[31] = system: Rattus norvegicus; test: Antiulcerogenic activity in fasted Rattus norvegicus Sprague-Dawley (rat) stomach assessed as ulcer index at 48 mg/kg, po after 8 hr (reference value: 0.23 +/- 0.09); assay type: functional
[32] = system: Mus musculus; test: Analgesic activity in Mus musculus (mouse) assessed as inhibition of acetic acid-induced abdominal writhing at 10 mg/kg, po measured for 20 min relative to vehicle-treated control; conditions: Abdomen

COc1ccc2c(c1)c(CC(=O)Oc1ccc3c(c1)OCO3)c(C)n2C(=O)c1ccc(Cl)cc1
Activity [1]: 44.52%
inhibition in vivo at 13.96 mg/kg [2]: 86%
Activity [3]: 43.17%
UI [4]: 0.79

COc1ccc2c(c1)c(CC(=O)Oc1ccc3ccc(=O)oc3c1)c(C)n2C(=O)c1ccc(Cl)cc1
Activity [5]: 50.27%
Activity [6]: 48.06%
inhibition in vivo at 13.35 mg/kg [7]: 75.2%
UI [8]: 1.28

COc1ccc2c(c1)c(CC(=O)O[C@@H]1C[C@H](C)CC[C@H]1C(C)C)c(C)n2C(=O)c1ccc(Cl)cc1
Activity [9]: 52.01%
UI [10]: 1.41
Activity [11]: 55.54%
inhibition in vivo at 13.9 mg/kg [12]: 73.9%

COc1ccc2c(c1)c(CC(=O)Oc1ccccc1OC)c(C)n2C(=O)c1ccc(Cl)cc1
Activity [13]: 48.21%
inhibition in vivo at 12.9 mg/kg [14]: 78.7%
UI [15]: 1.15
Activity [16]: 46.89%

C=CCc1ccc(OC(=O)Cc2c(C)n(C(=O)c3ccc(Cl)cc3)c3ccc(OC)cc23)c(OC)c1
Activity [17]: 44.33%
inhibition in vivo at 14.08 mg/kg [18]: 84.8%
Activity [19]: 45.39%
UI [20]: 0.93

COc1ccc2c(c1)c(CC(=O)Oc1cc(C)ccc1C(C)C)c(C)n2C(=O)c1ccc(Cl)cc1
UI [21]: 1.37
inhibition in vivo at 13.69 mg/kg [22]: 73.2%
Activity [23]: 54.61%
Activity [24]: 50.25%

COc1ccc2c(c1)c(CC(=O)Oc1ccc(C=O)cc1OC)c(C)n2C(=O)c1ccc(Cl)cc1
Activity [25]: 49.87%
UI [26]: 1.23
Activity [27]: 47.13%
inhibition in vivo at 13.75 mg/kg [28]: 81.5%

COc1ccc2c(c1)c(CC(=O)O)c(C)n2C(=O)c1ccc(Cl)cc1 [INDOMETHACIN]
Activity [29]: 48.35%
Activity [30]: 57.39%
UI [31]: 5.54
inhibition in vivo at 10 mg/kg [32]: 74.9%
